According to ChEMBL document CHEMBL2069202, “Antiviral activity and synthesis of quaternized promazine derivatives against HSV-1” (Bioorg Med Chem Lett, 2012):
Activity calls are given as the source filed them. No cut-off for these calls is given here.

Columns and labels:
Human alphaherpesvirus 1 [1] = assay: Antiviral activity against HSV-1 infected in african green monkey Vero cells assessed as inhibition of viral replication after 48 hrs by GFP reduction assay; assay type: functional, organism-based
Human alphaherpesvirus 1 [2] = assay: Antiviral activity against HSV-1 infected in african green monkey Vero cells assessed as inhibition of viral replication at 48 uM after 48 hrs by plaque reduction assay; assay type: functional, organism-based
Human alphaherpesvirus 1 [3] = assay: Antiviral activity against HSV-1 infected in african green monkey Vero cells assessed as inhibition of GFP gene expression after 48 hrs by RT-PCR analysis; assay type: functional, organism-based
Human alphaherpesvirus 1 [4] = assay: Antiviral activity against HSV-1 infected in african green monkey Vero cells assessed as inhibition of viral replication at 50 uM after 48 hrs by GFP reduction assay; assay type: functional, organism-based
Human alphaherpesvirus 1 [5] = assay: Antiviral activity against HSV-1 infected in african green monkey Vero cells assessed as inhibition of viral replication at 50 uM treated 2 hrs after post infection by GFP reduction assay; assay type: functional, organism-based
Human alphaherpesvirus 1 [6] = assay: Antiviral activity against HSV-1 infected in african green monkey Vero cells assessed as inhibition of viral replication at 48 uM after 48 hrs by GFP reduction assay; assay type: functional, organism-based
Human alphaherpesvirus 1 [7] = assay: Antiviral activity against HSV-1 infected in african green monkey Vero cells assessed as inhibition of viral replication at 50 uM treated for 24 hrs measured 24 hrs after drug washout by GFP reduction assay; assay type: functional, organism-based
Human alphaherpesvirus 1 [8] = assay: Antiviral activity against HSV-1 infected in african green monkey Vero cells assessed as inhibition of viral ICP4 gene expression after 48 hrs by RT-PCR analysis; assay type: functional, organism-based
Human alphaherpesvirus 1 [9] = assay: Antiviral activity against HSV-1 infected in african green monkey Vero cells assessed as inhibition of viral replication at 200 uM after 48 hrs by GFP reduction assay; assay type: functional, organism-based
Human alphaherpesvirus 1 [10] = assay: Antiviral activity against HSV-1 infected in african green monkey Vero cells assessed as inhibition of viral replication at 50 uM after 48 hrs by GFP reduction assay relative to acyclovir; assay type: functional, organism-based
Vero = assay: Cytotoxicity against african green monkey Vero cells up to 200 uM; assay type: cell-based; details: chlorocebus sabaeus

`C[N+](C)(CCCN1c2ccccc2Sc2ccc(C(F)(F)F)cc21)Cc1ccccc1` was tested, and the inhibition (Human alphaherpesvirus 1 [1]) was “inactive”.
In the case of `Nc1nc2c(ncn2COCCO)c(=O)[nH]1`, the inhibition (Human alphaherpesvirus 1 [2]) is reported as “Active”, the inhibition (Human alphaherpesvirus 1 [3]) is reported as “Active” and the inhibition (Human alphaherpesvirus 1 [4]) is reported as “Active”. The inhibition (Human alphaherpesvirus 1 [5]) was “Active”, the inhibition (Human alphaherpesvirus 1 [6]) was “Active” and the inhibition (Human alphaherpesvirus 1 [7]) was “Active”. For the same compound, the inhibition (Human alphaherpesvirus 1 [8]) was “Active”.
For `C#CC[N+](C)(C)CCCN1c2ccccc2Sc2ccc(C(F)(F)F)cc21`, the inhibition (Human alphaherpesvirus 1 [1]) was “inactive”.
In the case of `C=CC[N+](C)(C)CCCN1c2ccccc2Sc2ccc(C(F)(F)F)cc21`, the inhibition (Human alphaherpesvirus 1 [1]) is reported as “inactive”.
`C[N+](C)(CC#N)CCCN1c2ccccc2Sc2ccc(C(F)(F)F)cc21` was tested, and the inhibition (Human alphaherpesvirus 1 [1]) was “inactive”.
With `CCCC[N+](C)(C)CCCN1c2ccccc2Sc2ccc(C(F)(F)F)cc21` the inhibition (Human alphaherpesvirus 1 [9]) was “Active”.
With `C[N+](C)(CCCN1c2ccccc2Sc2ccc(C(F)(F)F)cc21)Cc1ccc(Cl)cc1.[Cl-]` the inhibition (Human alphaherpesvirus 1 [10]) was “Active”, the inhibition (Human alphaherpesvirus 1 [2]) was “Active” and the inhibition (Human alphaherpesvirus 1 [3]) was “Active”. The inhibition (Human alphaherpesvirus 1 [5]) was “inactive”, the Activity (Vero) was “Non-toxic” and the inhibition (Human alphaherpesvirus 1 [6]) was “Active”. The inhibition (Human alphaherpesvirus 1 [7]) was “inactive” and the inhibition (Human alphaherpesvirus 1 [8]) was “Active”.
In the case of `C[N+](C)(CCCN1c2ccccc2Sc2ccc(C(F)(F)F)cc21)Cc1cccc(Cl)c1`, the inhibition (Human alphaherpesvirus 1 [9]) is reported as “Active” and the inhibition (Human alphaherpesvirus 1 [4]) is reported as “inactive”.
With `C[N+](C)(CCCN1c2ccccc2Sc2ccc(C(F)(F)F)cc21)Cc1ccccc1Cl` the inhibition (Human alphaherpesvirus 1 [9]) was “Active” and the inhibition (Human alphaherpesvirus 1 [4]) was “inactive”.
With `O[C@]12C=C(c3nccc4c3[nH]c3ccccc34)[C@@H]3CCN(CCCC/C=C\CC1)C[C@@]31C[C@@H]3/C=C\CCCCN3[C@H]12` the inhibition (Human alphaherpesvirus 1 [3]) was “inactive”.
With `C#CC[N+](C)(C)CCCN1c2ccccc2Sc2ccccc21` the inhibition (Human alphaherpesvirus 1 [1]) was “inactive”.
